The values that follow come from patent US20130303509A1, “NAMPT INHIBITORS” (AbbVie Inc., priority 2012, published 2013).

The test relates to PC3 cells. Put plainly: NAMPT Cell Proliferation Assay. The note with it: Homo sapiens, PC-3, 120 h, 5 days incubation, cell viability by Cell Titer Glo. It counts as cell-based. In outline:
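Five-day CellTiter-Glo viability readout in PC3 cells grown in RPMI/10% heat-inactivated FBS. Compounds added after overnight attachment as a 10-fold dilution series, […]. Percent inhibition fitted to sigmoidal dose-response to derive IC50.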
(In general: In ATP-based viability assays light output follows the ATP content of the culture.)
Broadly, the IC50 is the concentration that gives 50% inhibition. Low values mean greater potency, high ones weaker potency. Regarding `O=C(Nc1ccc(OC2CCN(C(=O)Cc3ccc(F)cc3)CC2)cc1)C1CN(c2cccnn2)C1` [Example 232, N-[4-({1-[(4-fluorophenyl)acetyl]piperidin-4-yl}oxy)phenyl]-1-(pyridazin-3-yl)azetidine-3-carboxamide], inhibition was half-maximal at 8.74 nM (IC50).

On to `O=C(Nc1ccc(OC2CCN(C(=O)CC3CC3)CC2)cc1)C1CN(c2cccnn2)C1` [Example 233, N-(4-{[1-(cyclopropylacetyl)piperidin-4-yl]oxy}phenyl)-1-(pyridazin-3-yl)azetidine-3-carboxamide], for which the half-maximal inhibitory concentration (IC50) came out at 8.73 nM. Molecule `O=C(Nc1ccc(OC2CCN(C(=O)c3ccc(F)c(F)c3)CC2)cc1)C1CN(c2cccnn2)C1` [Example 234, N-(4-{[1-(3,4-difluorobenzoyl)piperidin-4-yl]oxy}phenyl)-1-(pyridazin-3-yl)azetidine-3-carboxamide] showed a half-maximal inhibitory concentration (IC50) of 10.5 nM.

In turn, `O=C(Nc1ccc(OC2CCN(C(=O)c3ccc(OC(F)(F)F)cc3)CC2)cc1)C1CN(c2cccnn2)C1` [Example 235, 1-(pyridazin-3-yl)-N-[4-({1-[4-(trifluoromethoxy)benzoyl]piperidin-4-yl}oxy)phenyl]azetidine-3-carboxamide] displayed an IC50 of 12.4 nM.

`O=C(Nc1ccc(OC2CCN(C(=O)Cc3ccc(F)cc3F)CC2)cc1)C1CN(c2cccnn2)C1` [Example 236, N-[4-({1-[(2,4-difluorophenyl)acetyl]piperidin-4-yl}oxy)phenyl]-1-(pyridazin-3-yl)azetidine-3-carboxamide] came in with an IC50 of 9.25 nM. In turn, `O=C(Nc1ccc(OC2CCN(C(=O)c3ccc(C(F)(F)F)cc3)CC2)cc1)C1CN(c2cccnn2)C1` [Example 237, 1-(pyridazin-3-yl)-N-[4-({1-[4-(trifluoromethyl)benzoyl]piperidin-4-yl}oxy)phenyl]azetidine-3-carboxamide] came in with an IC50 of 10.3 nM. `O=C(Nc1ccc(OC2CCN(C(=O)Cc3ccc(OC(F)(F)F)cc3)CC2)cc1)C1CN(c2cccnn2)C1` [Example 238, 1-(pyridazin-3-yl)-N-{4-[(1-{[4-(trifluoromethoxy)phenyl]acetyl}piperidin-4-yl)oxy]phenyl}azetidine-3-carboxamide] gave an IC50 of 15.7 nM. Take `O=C(Nc1ccc(OC2CCN(C(=O)Cc3cc(F)cc(F)c3)CC2)cc1)C1CN(c2cccnn2)C1` [Example 239, N-[4-({1-[(3,5-difluorophenyl)acetyl]piperidin-4-yl}oxy)phenyl]-1-(pyridazin-3-yl)azetidine-3-carboxamide]: it took 6.7 nM to reach half-maximal inhibition (IC50).

Turning to `O=C(Nc1ccc(OC2CCN(C(=O)Cc3cccc(C(F)(F)F)c3)CC2)cc1)C1CN(c2cccnn2)C1` [Example 240, 1-(pyridazin-3-yl)-N-{4-[(1-{[3-(trifluoromethyl)phenyl]acetyl}piperidin-4-yl)oxy]phenyl}azetidine-3-carboxamide], the IC50 was found to be 10.3 nM.

`CC(C)(C)C(=O)N1CCC(Oc2ccc(NC(=O)C3CN(c4cccnn4)C3)cc2)CC1` [Example 241, N-(4-{[1-(2,2-dimethylpropanoyl)piperidin-4-yl]oxy}phenyl)-1-(pyridazin-3-yl)azetidine-3-carboxamide] had an IC50 of 7.73 nM.

Consider `O=C(Nc1ccc(OC2CCN(C(=O)c3ccccn3)CC2)cc1)C1CN(c2cccnn2)C1` [Example 242, 1-(pyridazin-3-yl)-N-(4-{[1-(pyridin-2-ylcarbonyl)piperidin-4-yl]oxy}phenyl)azetidine-3-carboxamide], for which the IC50 was determined as 9.06 nM. The figure for `O=C(Nc1ccc(OC2CCN(C(=O)c3cc(F)cc(F)c3)CC2)cc1)C1CN(c2cccnn2)C1` [Example 243, N-(4-{[1-(3,5-difluorobenzoyl)piperidin-4-yl]oxy}phenyl)-1-(pyridazin-3-yl)azetidine-3-carboxamide] is 9.28 nM; for `CC(=O)N1CCC(Oc2ccc(NC(=O)C3CN(c4cccnn4)C3)cc2)CC1` [Example 244, -{4-[(1-acetylpiperidin-4-yl)oxy]phenyl}-1-(pyridazin-3-yl)azetidine-3-carboxamide] it is 10.4 nM.
